Test results: patent publication US10744150B2, “Cyclic dinucleotides as anticancer agents” (BRISTOL-MYERS SQUIBB COMPANY, priority 2017, dated 2020)
Where two headings read alike, the source gives them in different places.

Assays:
[1] = molecular target: T1, STING AQ: His-TVMV-S-hSTING(155-341)-G230A-R293Q (Homo sapiens, UniProt Q86WV6, G230A/H232R/R293Q); experiment: STING HTRF binding assay (time resolved FRET competition), STING AQ; conditions: 20 nM His-tagged STING cytoplasmic domain, 40 nM fluorescein-labeled cGAMP analog probe, one hour; read-out: HTRF Binding Assays IC50 STING AQ
T1 construct: His-TVMV-S-hSTING(155-341)-G230A-R293Q
Experimental: (§1) A time resolved FRET-based competition binding assay was used to assess test article binding to STING WT and STING AQ. His-tagged STING cytoplasmic domain (WT or AQ) at a concentration of 20 nM was incubated with 2.5 nM Tb-labeled anti-His antibody, test compound, and fluorescein-labeled cGAMP analog probe (BioLog cat. no. C195) at a concentration of 200 nM (STING WT) or 40 nM (STING AQ) in PBS containing 0.005% Tween-20 and 0.1% BSA for one hour. Fluorescence at 495 nm and 520 nm was measured using an EnVision microplate reader to quantify FRET between Tb-labeled anti-His antibody and fluorescein-labeled probe. Background was defined as the signal obtained in the absence of STING protein, and background subtracted FRET ratios were normalized to the maximum signal obtained in the absence of test compound. These values were converted to a percent inhibition. Percent inhibition was determined for test compounds at 11 concentrations. The IC50, defined as the concentration of competing test compound needed to reduce specific binding of the probe by 50%, was calculated using the 4 parameter logistic equation to fit the data

[2] = tested on: IRF3; experiment: STING THP1 reporter assay, IRF pathway (secreted luciferase Lucia, QUANTI-Luc); assay type: cell-based; conditions: THP1-Dual cells, 10% human plasma, 100% activation = 100 μM cGAMP, luciferase readout, read-out: THP1 Reporter Assays EC50 IRF3
Description: (§2) THP1-Dual™ cells were derived from the human THP-1 monocyte cell line by stable integration of two inducible reporter constructs. To this end, THP1-Dual™ cells allow the simultaneous study of the NF-κB pathway, by monitoring the activity of SEAP, and the IRF pathway by assessing the activity of a secreted luciferase (Lucia). Both reporter proteins are readily measurable in the cell culture supernatant when using QUANTI-Blue™, a SEAP detection reagent, and QUANTI-Luc™, a luciferase detection reagent.
(§3) THP1-Dual™ cells induce the activation of NF-κB in response to STING agonists. They also trigger the IRF pathway upon stimulation with STING agonists, such as cGAMP. Here, the THP-1-Dual cells were used to assess STING binders for function on the cellular level.
(§4) Serial dilutions of compounds in DMSO were added to low volume 384 well plates at 100 nl/well using an ECHO acoustic dispenser (Labcyte, model 550) to achieve final starting concentration of 100 μM in cell suspension. THP-1 Dual™ STING reporter cells (Invivogen, Dual cells cat # THPD-nfis) were added to the plates with compounds at 15,000 cells in 10 μL per well in RPMI media (Gibco, cat #11875) containing 10% human plasma in a low volume 384-well black wall clear bottom tissue culture plate (Corning, cat #3542) for SEAP assay and low volume solid white plate (Corning, cat #3826) for luciferase assay. One column of the plate was reserved for treatment with cGAMP at 100 μM for 100% activation calculation and one column for no treatment (DMSO only) for baseline activation. Plates were then incubated in 37° C. incubator at 5% CO2 for 20 hours.
(§5) In the SEAP assay, 5 μl of 2× QuantiBlue (Invivogen, cat # Rep-qb2) is added to 384 well black plates seeded with THP1 cells and incubated at 37° C. for 2 hours. Plates were read on the Envision (Perkin Elmer) at 620 nm wavelength (OD620). In the luciferase assay, 5 μl of Quantiluc (Invivogen, Rep-qlc2) is added to white 384 well plates seeded with THP1 cells and read at 5 minutes on the Envision (Perkin Elmer) using a luminescence protocol (RLU). For both cell lines, 100% activation was determined by value (RLU) of THP-1 Dual STING cells stimulated with 100 μM cGAMP (Invivogen, cat # TLRL-NACGA23-5).

[3] = tested on: NFkB; experiment: STING THP1 reporter assay, NF-κB pathway (SEAP, QUANTI-Blue); assay type: cell-based; conditions: THP1-Dual cells, 10% human plasma, 100% activation = 100 μM cGAMP
Description: as §2, §3, §4, §5

[4] = molecular target: T2, STING WT: His-TVMV-S-hSTING(155-341)-H232R (Homo sapiens, UniProt Q86WV6, H232R); experiment: STING HTRF binding assay (time resolved FRET competition), STING WT; conditions: 20 nM His-tagged STING cytoplasmic domain, 200 nM fluorescein-labeled cGAMP analog probe, one hour; read-out: HTRF Binding Assays IC50 STING WT
T2 construct: His-TVMV-S-hSTING(155-341)-H232R
Experimental: as §1

[5] = Homo sapiens, THP-1, 20 h, SEAP readout OD620, read-out: THP1 Reporter Assays EC50 NFkB
[6] = 20 hours, SEAP readout OD620, read-out: THP1 Reporter Assays EC50 NFkB

T2 sequence (Q86WV6 with tags, fused parts or gaps H232R): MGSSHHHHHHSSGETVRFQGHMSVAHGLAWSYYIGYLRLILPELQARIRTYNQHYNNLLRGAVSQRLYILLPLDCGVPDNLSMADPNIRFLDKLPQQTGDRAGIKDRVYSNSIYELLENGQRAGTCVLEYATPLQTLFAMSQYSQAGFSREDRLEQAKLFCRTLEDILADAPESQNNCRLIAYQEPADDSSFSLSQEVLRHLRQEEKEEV
T1 sequence (Q86WV6 with tags, fused parts or gaps G230A/H232R/R293Q): as the sequence (Q86WV6 with tags, fused parts or gaps H232R) above, with G99A, R162Q counted along it

Work on Nc1ncnc2c1ncn2[C@@H]1C[C@@H]2COP(=O)(O)O[C@H]3[C@@H](F)[C@H](n4cnc5c(N)ncnc54)O[C@@H]3COP(=O)(O)OC[C@H]21 [Example 10, (1R,6S,8R,9R,15R,17R,18R)-8,17-bis(6-amino-9H-purin-9-yl)-18-fluoro-3,12-dihydroxy-2,4,11,13,16-pentaoxa-3λ^5,12λ^5-diphosphatricyclo[13.3.0.0^6,9]octadecane-3,12-dione] yielded an IC50 [1] of 0.04 µM, an EC50 ([2]; Homo sapiens, THP-1, 20 h) greater than 100 µM and an EC50 [3, 5] greater than 100 µM. For the same molecule, the IC50 [4] was 5.2 µM.

NC(=O)c1cccc2c1nnn2[C@@H]1O[C@@H]2COP(O)(=S)OC[C@@H]3[C@@H](COP(O)(=S)O[C@@H]1[C@@H]2F)C[C@H]3n1cnc2c(N)ncnc21 (single isomer, unassigned) [Example 11-1] showed an IC50 [1] of 3.1 µM, an EC50 ([2]; Homo sapiens, THP-1, 20 h) greater than 100 µM and an EC50 [3, 5] greater than 100 µM. For the same molecule, the IC50 [4] was 20.5 µM.

For Nc1ncnc2c1ncn2[C@@H]1C[C@@H]2COP(O)(=S)O[C@H]3[C@@H](O)[C@H](n4cnc5c(O)ncnc54)O[C@@H]3COP(O)(=S)OC[C@H]21 (stereo partly drawn) [Example 16, (1S,6S,8R,9R,15R,17R,18R)-8-(6-amino-9H-purin-9-yl)-3,12,18-trihydroxy-17-(6-hydroxy-9H-purin-9-yl)-2,4,11,13,16-pentaoxa-3λ^5,12λ^5-diphosphatricyclo[13.3.0.0^6,9]octadecane-3,12-dithione], the IC50 [1] was 0.23 µM, the EC50 ([2]; Homo sapiens, THP-1, 20 h) was greater than 100 µM and the EC50 [3, 5] was 31 µM. The IC50 [4] was 17.9 µM.

Work on Nc1ncnc2c1ncn2[C@@H]1O[C@@H]2COP(O)(=S)OC[C@@H]3[C@@H](COP(O)(=S)O[C@H]2[C@H]1F)C[C@H]3n1cnc2c(O)nc3nccn3c21 (single isomer, unassigned) [Example 3-2] yielded an IC50 [1] of 0.46 µM, an EC50 ([2]; 20 hours) greater than 100 µM and an EC50 [3, 6] greater than 100 µM. For the same molecule, the IC50 [4] was 4 µM.

Nc1ncnc2c1ccn2[C@@H]1O[C@@H]2COP(O)(=S)OC[C@@H]3[C@@H](COP(O)(=S)O[C@H]2[C@@H]1F)C[C@H]3n1cnc2c(N)ncnc21 (single isomer, unassigned) [Example 8-3] gave an IC50 [1] greater than 100 µM, an EC50 ([2]; 20 hours) greater than 100 µM and an EC50 [3, 6] greater than 100 µM. It also gave an IC50 [4] greater than 100 µM.

Work on Nc1nc2c(ncn2[C@@H]2C[C@@H]3COP(O)(=S)O[C@H]4[C@@H](F)[C@H](n5cnc6c(N)ncnc65)O[C@@H]4COP(O)(=S)OC[C@H]32)c(=O)[nH]1 (single isomer, unassigned) [Example 18-3] yielded an IC50 [1] of 0.02 µM, an EC50 ([2]; 20 hours) greater than 100 µM and an EC50 [3, 6] greater than 100 µM. The IC50 [4] was 0.52 µM.

Nc1ncnc2c1ncn2[C@@H]1C[C@@H]2COP(O)(=S)O[C@H]3[C@@H](F)[C@H](n4cnc5c(=O)[nH]c6nccn6c54)O[C@@H]3COP(O)(=S)OC[C@H]21 (single isomer, unassigned) [Example 9-3] showed an IC50 [1] of 0.35 µM, an EC50 ([2]; 20 hours) greater than 100 µM and an EC50 [3, 6] greater than 100 µM. The IC50 [4] was 9.1 µM.

With O=c1[nH]c2nccn2c2c1ncn2[C@@H]1O[C@@H]2COP(=O)(S)OC[C@@H]3[C@@H](COP(=O)(S)O[C@@H]1[C@@H]2O)C[C@H]3n1cnc2c(O)ncnc21 (single isomer, unassigned) [Example 14-4] the IC50 [1] was 0.92 µM, the EC50 ([2]; 20 hours) was greater than 100 µM and the EC50 [3, 6] was greater than 100 µM. For the same molecule, the IC50 [4] was 4.3 µM.

For Nc1ncnc2c1ncn2[C@@H]1C[C@@H]2COP(O)(=S)O[C@H]3[C@@H](F)[C@H](n4cnc5c(=O)[nH]c6nccn6c54)O[C@@H]3COP(O)(=S)OC[C@H]21 (single isomer, unassigned) [Example 9-4], the IC50 [1] was 0.08 µM, the EC50 ([2]; 20 hours) was greater than 100 µM and the EC50 [3, 6] was greater than 100 µM. It also gave an IC50 [4] of 1.4 µM.

Nc1ncnc2c1ncn2[C@@H]1C[C@@H]2COP(O)(=S)O[C@@H]3[C@H](O)[C@@H](COP(O)(=S)OC[C@H]21)O[C@H]3n1cnc2c(N)ncnc21 (single isomer, unassigned) [Example 4-2] showed an IC50 [1] of 0.05 µM, an EC50 ([2]; 20 hours) of 72 µM and an EC50 [3, 6] of 87 µM. It also gave an IC50 [4] of 3.7 µM.

Nc1ncnc2c1ncn2[C@@H]1C[C@@H]2COP(O)(=S)O[C@H]3[C@@H](F)[C@H](n4cnc5c(=O)[nH]c6nccn6c54)O[C@@H]3COP(O)(=S)OC[C@H]21 (single isomer, unassigned) [Example 9-2] was tested, and the IC50 [1] was 0.92 µM, the EC50 ([2]; 20 hours) was greater than 100 µM and the EC50 [3, 6] was greater than 100 µM. The IC50 [4] was 4.3 µM.

O=c1[nH]c2nccn2c2c1ncn2[C@@H]1O[C@@H]2COP(=O)(S)OC[C@@H]3[C@@H](COP(=O)(S)O[C@@H]1[C@@H]2O)C[C@H]3n1cnc2c(O)ncnc21 (single isomer, unassigned) [Example 14-1] was tested, and the IC50 [1] was 4.5 µM, the EC50 ([2]; Homo sapiens, THP-1, 20 h) was greater than 100 µM and the EC50 [3, 5] was greater than 100 µM. For the same molecule, the IC50 [4] was 83 µM.

For O=c1[nH]c2nccn2c2c1ncn2[C@@H]1O[C@@H]2COP(=O)(S)OC[C@@H]3[C@@H](COP(=O)(S)O[C@@H]1[C@@H]2O)C[C@H]3n1cnc2c(O)ncnc21 (single isomer, unassigned) [Example 14-3], the IC50 [1] was 1.7 µM, the EC50 ([2]; 20 hours) was greater than 100 µM and the EC50 [3, 6] was greater than 100 µM. For the same molecule, the IC50 [4] was 14.3 µM.

Nc1ncnc2c1ncn2[C@@H]1C[C@@H]2COP(O)(=S)O[C@H]3C[C@H](n4ccc5c(Cl)ncnc54)O[C@@H]3COP(=O)(S)OC[C@H]21 (single isomer, unassigned) [Example 6-1] showed an IC50 [1] of 38.9 µM, an EC50 ([2]; Homo sapiens, THP-1, 20 h) greater than 100 µM and an EC50 [3, 5] greater than 100 µM. For the same molecule, the IC50 [4] was greater than 100 µM.

NC(=O)c1cccc2c1nnn2[C@@H]1O[C@@H]2COP(O)(=S)OC[C@@H]3[C@@H](COP(O)(=S)O[C@H]2[C@H]1F)C[C@H]3n1cnc2c(N)ncnc21 (single isomer, unassigned) [Example 12-1] was tested, and the IC50 [1] was 19.9 µM, the EC50 ([2]; Homo sapiens, THP-1, 20 h) was greater than 100 µM and the EC50 [3, 5] was greater than 100 µM. It also gave an IC50 [4] of 52.8 µM.

Work on NC(=O)c1cccc2c1nnn2[C@@H]1O[C@@H]2COP(O)(=S)OC[C@@H]3[C@@H](COP(O)(=S)O[C@@H]1[C@@H]2F)C[C@H]3n1cnc2c(N)ncnc21 (single isomer, unassigned) [Example 11-4] yielded an IC50 [1] of 23.1 µM, an EC50 ([2]; 20 hours) greater than 100 µM and an EC50 [3, 6] greater than 100 µM. It also gave an IC50 [4] of 66.2 µM.

NC(=O)c1cccc2c1nnn2[C@@H]1C[C@@H]2COP(O)(=S)O[C@H]3[C@@H](F)[C@H](n4cnc5c(N)ncnc54)O[C@@H]3COP(O)(=S)OC[C@H]21 (single isomer, unassigned) [Example 13-1] gave an IC50 [1] of 85.1 µM, an EC50 ([2]; Homo sapiens, THP-1, 20 h) greater than 100 µM and an EC50 [3, 5] greater than 100 µM. For the same molecule, the IC50 [4] was greater than 100 µM.

For Nc1ncnc2c1ncn2[C@@H]1C[C@@H]2COP(O)(=S)O[C@H]3[C@H](F)[C@H](n4ccc5c(Cl)ncnc54)O[C@@H]3COP(O)(=S)OC[C@H]21 (single isomer, unassigned) [Example 7-3], the IC50 [1] was 61.1 µM, the EC50 ([2]; 20 hours) was greater than 100 µM and the EC50 [3, 6] was greater than 100 µM. The IC50 [4] was greater than 100 µM.

Molecule NC(=O)c1cccc2c1nnn2[C@@H]1C[C@@H]2COP(O)(=S)O[C@H]3[C@@H](F)[C@H](n4cnc5c(N)ncnc54)O[C@@H]3COP(O)(=S)OC[C@H]21 (single isomer, unassigned) [Example 13-2] has an IC50 [1] of 3 µM, an EC50 ([2]; 20 hours) greater than 100 µM and an EC50 [3, 6] greater than 100 µM. For the same molecule, the IC50 [4] was greater than 100 µM.
